Data published in ChEMBL document CHEMBL1201862, “PubChem BioAssay data set” (2004).
Activity calls are given as the source filed them.

Legend:
[1] = target: T1, Apoptotic protease-activating factor 1 (Homo sapiens, UniProt O14727); format: functional
T1 sequence (O14727 whole entry): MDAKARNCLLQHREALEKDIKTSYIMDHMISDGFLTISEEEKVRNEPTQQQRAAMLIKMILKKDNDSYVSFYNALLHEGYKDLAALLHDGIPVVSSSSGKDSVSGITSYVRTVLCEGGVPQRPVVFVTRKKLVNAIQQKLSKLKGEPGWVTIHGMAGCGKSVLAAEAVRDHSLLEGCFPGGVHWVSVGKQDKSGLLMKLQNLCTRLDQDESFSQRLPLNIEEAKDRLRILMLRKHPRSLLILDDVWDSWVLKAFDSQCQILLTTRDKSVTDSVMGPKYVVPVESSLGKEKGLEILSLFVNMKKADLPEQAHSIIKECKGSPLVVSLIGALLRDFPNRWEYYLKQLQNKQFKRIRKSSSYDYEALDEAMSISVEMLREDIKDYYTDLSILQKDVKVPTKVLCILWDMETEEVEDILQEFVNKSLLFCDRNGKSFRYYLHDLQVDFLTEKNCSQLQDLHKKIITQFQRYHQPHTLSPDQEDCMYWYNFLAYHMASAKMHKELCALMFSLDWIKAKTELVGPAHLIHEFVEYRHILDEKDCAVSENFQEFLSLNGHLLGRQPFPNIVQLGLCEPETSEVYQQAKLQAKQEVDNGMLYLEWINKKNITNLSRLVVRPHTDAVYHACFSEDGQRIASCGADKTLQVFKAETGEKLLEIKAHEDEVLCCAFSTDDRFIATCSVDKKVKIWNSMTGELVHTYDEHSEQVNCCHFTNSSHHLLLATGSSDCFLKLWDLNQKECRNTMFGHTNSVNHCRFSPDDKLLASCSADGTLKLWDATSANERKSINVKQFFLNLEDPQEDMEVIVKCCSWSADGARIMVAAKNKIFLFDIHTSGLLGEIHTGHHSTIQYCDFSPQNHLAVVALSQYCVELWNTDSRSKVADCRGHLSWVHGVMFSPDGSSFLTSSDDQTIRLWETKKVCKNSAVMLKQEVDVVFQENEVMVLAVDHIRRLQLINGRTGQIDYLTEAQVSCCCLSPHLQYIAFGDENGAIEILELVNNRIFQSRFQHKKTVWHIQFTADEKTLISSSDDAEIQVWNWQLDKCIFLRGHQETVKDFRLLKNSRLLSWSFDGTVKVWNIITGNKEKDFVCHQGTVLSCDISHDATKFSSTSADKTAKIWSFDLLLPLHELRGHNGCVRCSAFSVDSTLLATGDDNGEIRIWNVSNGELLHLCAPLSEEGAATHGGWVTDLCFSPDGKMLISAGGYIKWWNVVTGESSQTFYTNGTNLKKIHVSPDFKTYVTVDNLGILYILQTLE

[2] = target: Tyrosyl-DNA phosphodiesterase 2 (Homo sapiens, UniProt O95551); experiment: human TDP2 enzyme inhibitors, dose response, biochemical, epi absorbance, IC50 (AID 743297)
Genome polyprotein = Genome polyprotein (dengue virus type 2, UniProt P29990); experiment: Dengue-2 NS5 methyltransferase inhibitors, primary screen, biochemical, confirmation dose response (AID 588689); format: functional
[3] = target: Heat shock protein HSP 90-alpha (Homo sapiens, UniProt P07900); format: functional, organism-based
[4] = inhibitors of control Renilla luciferase reporter, dose response, counter-screen for Shn3 3'UTR targeting project, Clone20-Shn3RL cells, dual-Glo, cherry-pick, set 2 (AID 720724); format: functional, cell-based; details: Dual-Go Shn3RL
[5] = target: T2, Heat shock factor protein 1 (Mus musculus, UniProt P38532); experiment: HSF1 potentiators in luciferase reporter cells, confirmation, cell-based, NIH3T3, luminescence, dose retest (AID 435004); format: functional;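 note: stress induced by proteasome inhibitor MG132 added 30 min after compound; luciferase reporter driven by HSF1 response element in NIH3T3 cells; actives raise luminescence as potentiators of the MG132 stress response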
T2 sequence (P38532 whole entry): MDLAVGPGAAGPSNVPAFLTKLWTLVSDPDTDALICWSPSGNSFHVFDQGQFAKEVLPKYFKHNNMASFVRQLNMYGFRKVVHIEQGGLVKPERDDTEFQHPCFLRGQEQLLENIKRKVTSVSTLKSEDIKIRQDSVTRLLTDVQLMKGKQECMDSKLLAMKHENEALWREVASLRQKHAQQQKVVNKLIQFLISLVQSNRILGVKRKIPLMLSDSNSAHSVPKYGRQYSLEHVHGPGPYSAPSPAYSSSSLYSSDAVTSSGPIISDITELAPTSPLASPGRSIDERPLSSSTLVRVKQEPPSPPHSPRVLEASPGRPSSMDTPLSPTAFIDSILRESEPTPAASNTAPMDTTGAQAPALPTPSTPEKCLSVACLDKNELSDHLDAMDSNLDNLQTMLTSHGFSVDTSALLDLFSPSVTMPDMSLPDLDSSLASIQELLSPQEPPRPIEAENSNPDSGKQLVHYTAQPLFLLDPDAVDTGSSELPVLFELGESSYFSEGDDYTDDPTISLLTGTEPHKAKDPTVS

[6] = target: T3, Short transient receptor potential channel 4 (Mus musculus, UniProt Q9QUQ5); experiment: mouse TRPC4 channel activators, dose response, cell-based, HEK293 TRPC4/mu-opioid, Fluo-4 calcium (AID 434937); format: functional
T3 sequence (Q9QUQ5 whole entry): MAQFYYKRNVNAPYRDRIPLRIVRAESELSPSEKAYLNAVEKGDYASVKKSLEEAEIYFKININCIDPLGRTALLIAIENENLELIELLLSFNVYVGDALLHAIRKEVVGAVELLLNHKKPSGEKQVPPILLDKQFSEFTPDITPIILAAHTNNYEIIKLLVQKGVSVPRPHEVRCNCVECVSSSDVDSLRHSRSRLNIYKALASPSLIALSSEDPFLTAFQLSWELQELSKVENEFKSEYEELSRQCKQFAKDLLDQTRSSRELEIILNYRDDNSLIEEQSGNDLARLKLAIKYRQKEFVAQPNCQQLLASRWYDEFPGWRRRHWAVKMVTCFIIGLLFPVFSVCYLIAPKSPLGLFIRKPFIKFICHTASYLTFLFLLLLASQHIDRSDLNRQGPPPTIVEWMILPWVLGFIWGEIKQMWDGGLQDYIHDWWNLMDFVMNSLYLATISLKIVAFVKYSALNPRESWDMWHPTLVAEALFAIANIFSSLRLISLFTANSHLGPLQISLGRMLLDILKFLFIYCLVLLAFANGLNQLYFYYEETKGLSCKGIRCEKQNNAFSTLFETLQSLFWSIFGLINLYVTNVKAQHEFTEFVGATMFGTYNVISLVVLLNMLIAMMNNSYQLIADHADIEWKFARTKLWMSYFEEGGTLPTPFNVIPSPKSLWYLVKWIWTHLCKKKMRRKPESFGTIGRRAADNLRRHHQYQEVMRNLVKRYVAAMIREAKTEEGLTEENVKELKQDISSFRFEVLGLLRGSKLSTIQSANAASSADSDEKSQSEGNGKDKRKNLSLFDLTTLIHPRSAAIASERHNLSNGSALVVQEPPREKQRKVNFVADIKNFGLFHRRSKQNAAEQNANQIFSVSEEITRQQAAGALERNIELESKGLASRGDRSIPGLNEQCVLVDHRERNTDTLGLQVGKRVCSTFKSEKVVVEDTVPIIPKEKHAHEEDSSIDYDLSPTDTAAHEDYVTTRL

[7] = Shn3 3'UTR reporter inhibitors, dose response, cell-based, Clone20 osteoblasts, firefly luciferase, cherry-picked (AID 624132); format: functional;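 note: firefly luciferase luminescence from reporter carrying the Shn3 3'UTR in osteoblasts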
[8] = target: 1-phosphatidylinositol 4,5-bisphosphate phosphodiesterase gamma-1 (Homo sapiens, UniProt P19174); experiment: Counterscreen for inhibitors of phospholipase C isozymes (PLC-B3): Fluorescence-based biochemical high throughput dose response assay to identify inhibitors of phospholipase C isozymes (PLC-gamma1).
[9] = target: 1-phosphatidylinositol 4,5-bisphosphate phosphodiesterase beta-3 (Homo sapiens, UniProt Q01970); experiment: Fluorescence-based biochemical high throughput dose response assay to identify inhibitors of phospholipase C isozymes (PLC-B3).
Chain of 1-phosphatidylinositol 4,5-bisphosphate phosphodiesterase beta-3 (Q01970 whole entry): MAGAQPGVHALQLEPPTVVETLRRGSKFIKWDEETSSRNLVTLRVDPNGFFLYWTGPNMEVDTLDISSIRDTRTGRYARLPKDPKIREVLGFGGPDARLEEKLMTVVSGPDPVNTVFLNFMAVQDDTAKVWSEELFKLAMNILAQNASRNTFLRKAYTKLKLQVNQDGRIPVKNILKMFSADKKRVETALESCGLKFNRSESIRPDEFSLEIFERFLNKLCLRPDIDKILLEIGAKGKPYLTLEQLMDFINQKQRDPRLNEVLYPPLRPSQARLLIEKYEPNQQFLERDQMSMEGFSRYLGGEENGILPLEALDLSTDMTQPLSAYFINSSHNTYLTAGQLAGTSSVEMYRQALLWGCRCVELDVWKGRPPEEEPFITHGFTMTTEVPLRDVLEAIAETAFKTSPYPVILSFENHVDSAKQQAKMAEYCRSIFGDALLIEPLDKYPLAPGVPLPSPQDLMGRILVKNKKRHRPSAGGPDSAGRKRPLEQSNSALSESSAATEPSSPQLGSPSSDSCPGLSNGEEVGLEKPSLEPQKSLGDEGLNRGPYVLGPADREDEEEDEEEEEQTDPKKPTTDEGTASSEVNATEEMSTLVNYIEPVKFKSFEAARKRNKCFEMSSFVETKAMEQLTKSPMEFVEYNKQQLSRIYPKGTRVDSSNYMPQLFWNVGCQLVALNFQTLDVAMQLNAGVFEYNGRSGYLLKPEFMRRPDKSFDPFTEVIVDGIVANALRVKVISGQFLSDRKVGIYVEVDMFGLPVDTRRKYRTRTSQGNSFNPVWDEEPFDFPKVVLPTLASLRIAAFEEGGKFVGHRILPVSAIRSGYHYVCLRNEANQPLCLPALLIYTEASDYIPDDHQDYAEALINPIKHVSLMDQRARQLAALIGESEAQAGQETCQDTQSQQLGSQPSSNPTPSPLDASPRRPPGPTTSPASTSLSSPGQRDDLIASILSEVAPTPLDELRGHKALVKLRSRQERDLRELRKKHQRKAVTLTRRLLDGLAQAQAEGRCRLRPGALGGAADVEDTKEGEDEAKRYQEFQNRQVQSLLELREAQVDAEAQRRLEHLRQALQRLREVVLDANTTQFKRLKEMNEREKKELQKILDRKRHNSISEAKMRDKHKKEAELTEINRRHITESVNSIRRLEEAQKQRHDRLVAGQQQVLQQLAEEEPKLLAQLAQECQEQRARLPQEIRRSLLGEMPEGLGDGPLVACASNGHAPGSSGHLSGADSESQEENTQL

Prothrombin = Prothrombin (Bos taurus, UniProt P00735); experiment: thrombin inhibition, dose response, biochemical, fluorescence polarization, uHTS hits (AID 602369); format: functional
Caspase-6 = target: T4, Caspase-6 (Homo sapiens, UniProt P55212); experiment: human caspase-6 inhibitors, dose response, biochemical, VEID-R110 fluorescence, cherry-pick (AID 720632)
T4 sequence (P55212 whole entry): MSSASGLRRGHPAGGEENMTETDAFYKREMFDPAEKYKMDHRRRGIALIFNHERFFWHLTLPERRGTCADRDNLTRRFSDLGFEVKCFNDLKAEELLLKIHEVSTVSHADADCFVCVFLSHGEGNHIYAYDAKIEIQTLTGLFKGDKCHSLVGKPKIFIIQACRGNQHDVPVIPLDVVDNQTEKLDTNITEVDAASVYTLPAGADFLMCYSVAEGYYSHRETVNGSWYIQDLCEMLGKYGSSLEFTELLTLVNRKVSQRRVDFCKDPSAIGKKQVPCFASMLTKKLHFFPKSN

[10] = target: 26S proteasome non-ATPase regulatory subunit 14 (Homo sapiens, UniProt O00487); experiment: inhibition of proteasome subunit RPN11 – biochemical, fluorescence polarization, uHTS hits, confirmation (AID 602368); format: functional
Chain of 26S proteasome non-ATPase regulatory subunit 14 (O00487 whole entry): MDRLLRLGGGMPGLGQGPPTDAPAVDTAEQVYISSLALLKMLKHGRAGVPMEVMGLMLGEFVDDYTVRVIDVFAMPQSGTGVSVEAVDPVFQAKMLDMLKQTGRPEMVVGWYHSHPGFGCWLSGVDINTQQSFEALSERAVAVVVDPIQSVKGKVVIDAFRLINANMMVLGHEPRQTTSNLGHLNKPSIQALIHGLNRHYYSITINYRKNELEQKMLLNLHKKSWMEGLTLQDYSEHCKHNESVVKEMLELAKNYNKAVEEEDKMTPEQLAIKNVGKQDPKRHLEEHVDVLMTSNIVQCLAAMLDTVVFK

[11] = target: T5, Small ubiquitin-related modifier 1 (Homo sapiens, UniProt P63165); experiment: inhibitors of SUMO1 partner interactions, dose response, biochemical, FRET (AID 624383); format: functional; details: read-out: IC50_Mean
T5 sequence (P63165 whole entry): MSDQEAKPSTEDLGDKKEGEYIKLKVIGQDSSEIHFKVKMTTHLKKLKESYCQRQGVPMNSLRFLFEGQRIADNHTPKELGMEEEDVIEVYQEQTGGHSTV

[12] = target: T5, Small ubiquitin-related modifier 1; experiment: inhibitors of SUMO1 peptide binding, dose response, biochemical, fluorescence polarization, uHTS hits (AID 624382); format: functional; details: read-out: IC50_Mean
[13] = target: T6, Carboxy-terminal domain RNA polymerase II polypeptide A small phosphatase 1 (Homo sapiens, UniProt Q9GZU7); experiment: inhibitors of CTDSP1, concentration-response testing, biochemical assay, absorbance-based, actives from ultra-high-throughput screening (AID 540297); format: functional
T6 sequence (Q9GZU7 whole entry): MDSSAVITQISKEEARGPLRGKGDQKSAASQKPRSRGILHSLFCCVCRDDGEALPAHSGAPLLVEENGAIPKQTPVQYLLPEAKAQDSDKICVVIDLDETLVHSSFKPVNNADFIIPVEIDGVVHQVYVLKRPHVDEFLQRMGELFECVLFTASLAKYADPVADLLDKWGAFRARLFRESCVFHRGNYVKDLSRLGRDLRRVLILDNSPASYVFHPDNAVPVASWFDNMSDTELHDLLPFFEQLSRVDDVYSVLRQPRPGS

[14] = target: DNA (cytosine-5)-methyltransferase 1 (Homo sapiens, UniProt P26358); experiment: DNMT1 methyltransferase inhibitors, confirmation, biochemical, fluorescent molecular beacon (AID 602386); format: functional
Chain of DNA (cytosine-5)-methyltransferase 1 (P26358 whole entry): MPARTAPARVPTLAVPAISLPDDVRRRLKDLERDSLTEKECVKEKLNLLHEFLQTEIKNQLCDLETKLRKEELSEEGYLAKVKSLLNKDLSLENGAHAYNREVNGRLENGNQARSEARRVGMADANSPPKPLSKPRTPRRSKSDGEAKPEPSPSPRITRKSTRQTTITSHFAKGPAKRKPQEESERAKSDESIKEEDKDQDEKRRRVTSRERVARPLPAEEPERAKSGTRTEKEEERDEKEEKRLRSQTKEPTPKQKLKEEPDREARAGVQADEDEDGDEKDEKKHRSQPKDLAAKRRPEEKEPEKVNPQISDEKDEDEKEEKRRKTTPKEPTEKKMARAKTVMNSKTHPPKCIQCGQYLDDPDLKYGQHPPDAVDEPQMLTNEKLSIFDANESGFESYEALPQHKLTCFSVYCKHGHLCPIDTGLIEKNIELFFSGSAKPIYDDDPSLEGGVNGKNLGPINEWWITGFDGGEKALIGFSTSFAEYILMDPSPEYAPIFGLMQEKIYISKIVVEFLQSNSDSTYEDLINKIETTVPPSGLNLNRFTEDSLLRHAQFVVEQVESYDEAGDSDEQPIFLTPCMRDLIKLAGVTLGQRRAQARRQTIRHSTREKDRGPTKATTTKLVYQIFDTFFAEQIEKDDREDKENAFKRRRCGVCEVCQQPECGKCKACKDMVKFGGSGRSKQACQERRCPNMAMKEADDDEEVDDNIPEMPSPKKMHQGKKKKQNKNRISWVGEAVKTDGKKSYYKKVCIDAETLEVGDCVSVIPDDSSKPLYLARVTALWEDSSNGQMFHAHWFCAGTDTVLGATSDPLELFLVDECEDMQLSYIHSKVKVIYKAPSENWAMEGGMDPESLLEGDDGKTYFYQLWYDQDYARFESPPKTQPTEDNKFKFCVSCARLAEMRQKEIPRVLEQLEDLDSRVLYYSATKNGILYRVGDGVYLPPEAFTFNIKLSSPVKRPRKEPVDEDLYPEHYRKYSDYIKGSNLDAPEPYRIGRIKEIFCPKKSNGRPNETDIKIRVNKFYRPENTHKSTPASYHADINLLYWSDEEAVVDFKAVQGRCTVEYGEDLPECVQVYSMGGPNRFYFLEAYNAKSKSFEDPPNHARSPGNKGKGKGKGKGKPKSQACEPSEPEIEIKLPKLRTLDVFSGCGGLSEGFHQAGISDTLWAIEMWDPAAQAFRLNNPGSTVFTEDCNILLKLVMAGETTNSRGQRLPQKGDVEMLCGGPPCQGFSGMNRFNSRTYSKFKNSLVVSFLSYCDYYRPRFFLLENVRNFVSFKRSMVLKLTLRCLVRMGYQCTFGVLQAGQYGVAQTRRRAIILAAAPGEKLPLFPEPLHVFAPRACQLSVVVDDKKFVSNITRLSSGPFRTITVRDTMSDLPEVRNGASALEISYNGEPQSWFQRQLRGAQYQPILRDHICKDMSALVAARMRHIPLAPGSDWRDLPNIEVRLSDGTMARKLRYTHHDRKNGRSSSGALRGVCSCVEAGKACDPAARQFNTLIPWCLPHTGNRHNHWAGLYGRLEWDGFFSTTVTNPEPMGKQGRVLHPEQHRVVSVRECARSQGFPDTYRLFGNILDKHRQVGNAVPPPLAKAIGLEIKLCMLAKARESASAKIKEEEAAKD

Caspase-7 = Caspase-7 (Homo sapiens, UniProt P55210); experiment: human caspase-7 inhibitors, dose response, selectivity assay for caspase-6 inhibitor project, biochemical, DEVD-R110 fluorescence, cherry-pick (AID 743295)
Chain of Caspase-7 (P55210 24-198 limits assumed): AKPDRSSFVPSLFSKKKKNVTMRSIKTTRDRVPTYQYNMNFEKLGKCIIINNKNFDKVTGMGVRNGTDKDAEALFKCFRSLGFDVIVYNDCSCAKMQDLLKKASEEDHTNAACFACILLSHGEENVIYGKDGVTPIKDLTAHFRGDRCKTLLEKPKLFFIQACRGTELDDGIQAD
Chain of Caspase-7 (P55210 207-303 limits assumed): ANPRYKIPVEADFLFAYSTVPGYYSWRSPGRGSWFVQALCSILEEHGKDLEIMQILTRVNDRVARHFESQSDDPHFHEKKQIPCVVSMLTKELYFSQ

[15] = target: 72 kDa type IV collagenase (Homo sapiens, UniProt P08253); experiment: Dose Response validation of uHTS RPN11 inhibitor hits using a MMP-2 Fluorescence assay.; format: functional
[16] = THP-1 cell cytotoxicity, dose response, cytotoxicity control for Vif-APOBEC3G degradation inhibitor project, THP-1 cells (AID 1117359); format: functional; details: Human immunodeficiency virus 1, THP-1
Caspase-8 = Caspase-8 (Homo sapiens, UniProt Q14790); experiment: caspase-8 inhibition counter-screen, dose response, selectivity assay for caspase-6 inhibitor project, biochemical, Z-IETD-R110 fluorescence, cherry-picked samples (AID 743294)
Chain of Caspase-8 (Q14790 217-374 limits assumed): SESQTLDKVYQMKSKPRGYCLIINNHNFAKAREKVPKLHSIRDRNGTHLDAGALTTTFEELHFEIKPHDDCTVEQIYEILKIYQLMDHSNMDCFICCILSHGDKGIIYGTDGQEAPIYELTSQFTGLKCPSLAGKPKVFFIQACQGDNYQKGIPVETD
Chain of Caspase-8 (Q14790 385-479 limits assumed): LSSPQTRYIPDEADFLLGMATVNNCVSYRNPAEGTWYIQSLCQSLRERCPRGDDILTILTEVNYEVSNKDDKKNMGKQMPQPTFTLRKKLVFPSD

[17] = P. falciparum Dd2 growth inhibitors, dose response, SYBR Green, cherry-picked samples (AID 1159567); format: functional, cell-based
[18] = HEK293 cell cytotoxicity, dose response, cytotoxicity control, cherry-picks, set 5 (AID 1053117); format: functional, cell-based
[19] = HepG2 cell cytotoxicity, dose response, cytotoxicity control, cherry-picked samples (AID 1159577); format: functional, cell-based
[20] = miR-122 activators in hepatoma reporter cells, dose response, cell-based, Huh7 psiCHECK-miR122, Renilla luciferase, cherry-picked (AID 651956); format: functional;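 note: huh7 hepatoma cells stably carrying a psiCHECK-2 miR-122 sensor plasmid; renilla luciferase signal reporting endogenous miR-122 activity after 48 h compound exposure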
[21] = BHK-21 cell cytotoxicity, cytotoxicity control for flavivirus guanylyltransferase probe project, secondary screen (AID 624078); format: functional
[22] = target: Potassium channel subfamily K member 3 (Homo sapiens, UniProt O14649); experiment: TASK1 (KCNK3) potassium channel inhibitors, SAR follow-up, CHO cells, FluxOR thallium flux (AID 652212); format: functional
Chain of Potassium channel subfamily K member 3 (Homo sapiens, UniProt O14649) (O14649 whole entry, the tested form may be a part): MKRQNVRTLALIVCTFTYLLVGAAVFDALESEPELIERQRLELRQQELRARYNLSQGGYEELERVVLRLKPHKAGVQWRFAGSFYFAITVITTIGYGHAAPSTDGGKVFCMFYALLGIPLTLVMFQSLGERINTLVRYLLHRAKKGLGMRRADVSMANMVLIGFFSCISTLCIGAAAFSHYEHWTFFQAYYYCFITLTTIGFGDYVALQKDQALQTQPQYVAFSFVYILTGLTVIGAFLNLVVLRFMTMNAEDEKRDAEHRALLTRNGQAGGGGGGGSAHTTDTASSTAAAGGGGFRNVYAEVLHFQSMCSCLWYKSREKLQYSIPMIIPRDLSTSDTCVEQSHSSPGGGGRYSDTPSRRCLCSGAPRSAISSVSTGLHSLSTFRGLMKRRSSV

[23] = target: Potassium channel subfamily K member 3 (Rattus norvegicus, UniProt O54912); experiment: SAR analysis for the identification of selective inhibitors of the two-pore domain potassium channel TASK1(KCNK3):Automated Electrophysiology.; format: functional
Chain of Potassium channel subfamily K member 3 (Rattus norvegicus, UniProt O54912) (O54912 whole entry, the tested form may be a part): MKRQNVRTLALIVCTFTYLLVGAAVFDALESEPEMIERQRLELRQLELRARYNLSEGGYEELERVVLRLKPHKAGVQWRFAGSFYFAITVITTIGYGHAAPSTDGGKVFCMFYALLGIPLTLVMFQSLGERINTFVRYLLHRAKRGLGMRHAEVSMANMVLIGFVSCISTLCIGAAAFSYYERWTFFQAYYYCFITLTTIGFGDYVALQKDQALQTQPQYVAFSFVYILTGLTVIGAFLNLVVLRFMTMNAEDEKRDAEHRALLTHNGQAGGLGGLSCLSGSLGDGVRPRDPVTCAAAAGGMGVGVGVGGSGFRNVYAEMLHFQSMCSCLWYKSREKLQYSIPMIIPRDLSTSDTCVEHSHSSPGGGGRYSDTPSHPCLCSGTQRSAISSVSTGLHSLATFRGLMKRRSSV

[24] = target: Potassium channel subfamily K member 9 (Homo sapiens, UniProt Q9NPC2); experiment: TASK3 (KCNK9) channel inhibitors, thallium flux, SAR follow-up, selectivity assay for TASK1 inhibitor project, cell-based, FluxOR thallium flux, concentration-response (AID 652211); format: functional;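 note: potency is for inhibitors of the channel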
Chain of Potassium channel subfamily K member 9 (Q9NPC2 whole entry): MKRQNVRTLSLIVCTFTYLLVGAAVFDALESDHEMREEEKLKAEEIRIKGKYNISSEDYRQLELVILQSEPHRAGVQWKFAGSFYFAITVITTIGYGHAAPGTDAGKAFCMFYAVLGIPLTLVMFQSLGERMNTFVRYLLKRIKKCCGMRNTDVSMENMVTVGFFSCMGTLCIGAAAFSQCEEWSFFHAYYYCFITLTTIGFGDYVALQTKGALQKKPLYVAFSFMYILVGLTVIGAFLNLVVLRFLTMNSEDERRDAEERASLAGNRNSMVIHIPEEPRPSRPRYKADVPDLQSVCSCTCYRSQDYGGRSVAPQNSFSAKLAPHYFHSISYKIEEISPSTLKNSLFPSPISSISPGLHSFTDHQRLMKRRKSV

O=C1C(O)=C(O)C(=O)c2ccccc21
IC50 [1]: 12.5 µM (active) | IC50 [2]: 19.3 µM (inactive) | IC50 (Genome polyprotein): > 100 µM (active)

O=C1S/C(=C\c2ccc(N3CCOCC3)o2)C(=O)N1Cc1c(F)cccc1Cl
AC50 [3]: 18.5 µM (active) | AC50 [4]: 42.1 µM (active) | EC50 [5]: > 260 µM (inactive) | EC50 [6]: 6.68 µM (active) | AC50 [7]: 6.72 µM (active)

COc1ccc(NC(=O)c2sc3cc(C(F)(F)F)cnc3c2-c2cccs2)cc1
IC50 [8]: > 122 µM (inactive) | IC50 [9]: > 122 µM (inactive)

Cc1ccc(NC(=O)CN(C)C(=O)c2cccc(-n3cccc3)c2)cc1
IC50 (Prothrombin): 86.9 µM (active) | AC50 (Caspase-6): 1.5 µM (active) | IC50 [10]: 11 µM (active) | IC50 [11]: 5.95 µM (active) | IC50 [12]: > 66.6 µM (inactive) | IC50 [13]: 5.68 µM (active) | IC50 [14]: 9.26 µM (active) | AC50 (Caspase-7): > 70 µM (inactive) | IC50 [15]: 18.4 µM (active) | CC50 [16]: > 40 µM (active) | AC50 (Caspase-8): > 70 µM (inactive)

CO[C@@H]1CN(C)C(=O)c2cc(NC(=O)Nc3ccc(Cl)c(Cl)c3)ccc2OC[C@H](C)NC[C@H]1C
AC50 [17]: 6.4 µM (active) | AC50 [18]: > 52 µM (inactive) | AC50 [19]: 7.83 µM (active) | AC50 [20]: 24.8 µM (active)

O=[N+]([O-])c1cccc(S(=O)(=O)Nc2cc(Sc3nc4ccccc4s3)c(O)c3ccccc23)c1
CC50 [21]: 11.5 µM (active)

COc1ccccc1NC(=O)c1cccc(NC(=O)c2ccccc2OC)c1
IC50 [22]: 0.008 µM (active) | IC50 [23]: 0.03 µM (active) | IC50 [24]: 3.02 µM (active)
